Starred links: 1 amine or outer side, 2 acyl side, 3 side chain; linkers in the order of their positions; H or OH if unused. Non-standard residues stand in square brackets, D forms with d. Residues, ends and D or L forms follow the SMILES beside them. Groups on a side chain read outwards from the residue. *: point of attachment. X3 = CCCCCCCCCCCCCCCCCC(=O)N[C@@H](CCC(=O)N[C@@H](CCC(=O)N[C@@H](CCC(=O)NCCCOCCOCCOCCCNC(=O)CCC(=O)NCCCOCCOCCOCCCNC(=O)CCC(=O)NCCCOCCOCCOCCCN*)C(=O)O)C(=O)O)C(=O)O; X1 = CCCCCCCCCCCCCCCC(=O)N[C@@H](CCC(=O)N[C@@H](CCC(=O)N[C@@H](CCC(=O)NCCCOCCOCCOCCCNC(=O)CCC(=O)NCCCOCCOCCOCCCNC(=O)CCC(=O)NCCCOCCOCCOCCCN*)C(=O)O)C(=O)O)C(=O)O; Suc = O=C(CCC(=O)[*:2])[*:1]; αMeK = C[C@](N)(CCCCN)C(=O)O; Aib = CC(C)(N)C(=O)O
Target: T1, RXFP1 (Homo sapiens, UniProt Q9HBX9)
T1 construct: OVCAR5 cells expressing endogenous RXFP1; endogenous in cells; host or cells: OVCAR5
T1 sequence (Q9HBX9 1-757): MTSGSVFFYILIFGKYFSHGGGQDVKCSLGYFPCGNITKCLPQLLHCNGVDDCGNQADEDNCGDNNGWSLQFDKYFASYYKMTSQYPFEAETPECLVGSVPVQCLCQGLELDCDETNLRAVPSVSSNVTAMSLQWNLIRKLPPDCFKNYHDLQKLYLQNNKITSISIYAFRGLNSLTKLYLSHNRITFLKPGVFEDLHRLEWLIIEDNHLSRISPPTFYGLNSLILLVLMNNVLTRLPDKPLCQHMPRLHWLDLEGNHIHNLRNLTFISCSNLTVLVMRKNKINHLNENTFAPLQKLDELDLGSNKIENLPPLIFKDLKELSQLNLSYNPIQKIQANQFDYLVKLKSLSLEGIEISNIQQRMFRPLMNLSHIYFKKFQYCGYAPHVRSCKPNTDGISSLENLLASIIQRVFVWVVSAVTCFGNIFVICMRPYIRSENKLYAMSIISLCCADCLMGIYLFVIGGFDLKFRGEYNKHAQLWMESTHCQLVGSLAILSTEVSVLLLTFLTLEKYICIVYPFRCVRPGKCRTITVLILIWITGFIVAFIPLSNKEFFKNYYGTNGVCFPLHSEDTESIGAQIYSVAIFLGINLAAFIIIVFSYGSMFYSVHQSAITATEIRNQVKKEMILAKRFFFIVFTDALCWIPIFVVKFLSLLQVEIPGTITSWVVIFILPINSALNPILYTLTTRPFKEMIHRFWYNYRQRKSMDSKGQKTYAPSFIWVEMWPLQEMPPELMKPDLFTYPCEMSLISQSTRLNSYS
Test: OVCAR5 cAMP assay (HTRF)
Assay type: cell-based
Conditions: for EC50: OVCAR 5 cells expressing endogenous RXFP1, cAMP readout; for Emax: OVCAR 5 cells, maximal cAMP relative to H2-relaxin
Excerpt: OVCAR5 cells expressing endogenous RXFP1 were used to test RXP1 agonist properties of peptides of the invention, and in particular of the peptides of sequence SEQ ID NO: 1-97.
Since RXFP1 is a Gs coupled GPCR, cAMP was used as readout of RXFP1 activation.
Isobutyl Methyl Xanthine (IBMX) was used to inhibit phosphodiesterase activity facilitating cAMP measurements. HTRF (Homogenous Time Resolved Fluorescence) technology was used to detect cAMP due to its great sensitivity.
In summary, OVCAR5 were grown in regular medium (RPMI) containing 10% fetal calf serum (FCS) and 1% antibiotics (penicillin/streptomycin).
Before the experiments, cells were detached with accutase and incubated for 40 minutes at 37° C. with 1 mM (3-isobutyl-1-methylxanthine) IBMX.
Cells were then distributed in 384 black well plates containing increasing concentrations of the different peptides in a fix volume of medium (without FCS).
After an incubation of 30 min at 37° C. in an humid incubator in 5% CO2, the reaction was stopped by adding a fixed volume of a solution containing a lysis buffer and cAMP-D2 (cAMP labeled with the dye d2) and the anti cAMP antibody linked to Europium and used for cAMP detection.
Readout of the experiment were performed on a fluorimeter allowing HTRF measurement. Activation curves were generated by plotting the intracellular value of cAMP versus log 10 of the compound concentration.
The 50% activation concentration (EC50) was calculated by nonlinear regression using the sigmoidal dose-response (variable slope) equation with Prism 5 software.
Emax % was determined as the maximal intracellular value of cAMP for test compound (upper limit of cAMP vs concentration curve) divided by the maximal intracellular value of cAMP for H2-relaxin determined in the same test occasion multiplied by 100. Emax %=100×[cAMPtest cpd]/[cAMPH2-Rlx]

EC50	Emax	SMILES
1.6 nM	88%	CCCCCCCCCCCCCCCC(=O)N[C@@H](CCC(=O)N[C@@H](CCC(=O)N[C@@H](CCC(=O)NCCCOCCOCCOCCCNC(=O)CCC(=O)NCCCOCCOCCOCCCNC(=O)CCC(=O)NCCCOCCOCCOCCCNC(=O)CCC(=O)NCCCC[C@H](NC(=O)CNC(=O)[C@H](CCC(=O)O)NC(=O)C(C)(C)NC(=O)C(C)(C)NC(=O)[C@@H](NC(=O)[C@H](CCCCNC(C)=O)NC(=O)C(C)(C)NC(=O)[C@H](CCCNC(=N)N)NC(=O)[C@@H](NC(=O)[C@H](CCCCN)NC(=O)[C@H](CCC(=O)O)NC(=O)[C@H](CCCNC(=N)N)NC(=O)CNC(=O)[C@H](CCC(=O)O)NC(=O)[C@H](CC(C)C)NC(C)=O)C(C)C)[C@@H](C)CC)C(=O)N[C@@H](CO)C(=O)N[C@H](C(=O)N[C@@H](Cc1ccccc1)C(=O)N[C@@H](CO)C(=O)N[C@@](C)(CCCCN)C(=O)N[C@@H](CCCNC(=N)N)C(=O)N[C@@H](C)C(=O)N[C@@H](CCCCNC(C)=O)C(N)=O)[C@@H](C)O)C(=O)O)C(=O)O)C(=O)O [compound 29] (Ac-LEGREKVR[Aib]K(Ac)I[Aib][Aib]EGK([Suc-X1])STFS[αMeK]RAK(Ac)-NH2)
0.21 nM	89%	CCCCCCCCCCCCCCCCCC(=O)N[C@@H](CCC(=O)N[C@@H](CCC(=O)N[C@@H](CCC(=O)NCCCOCCOCCOCCCNC(=O)CCC(=O)NCCCOCCOCCOCCCNC(=O)CCC(=O)NCCCOCCOCCOCCCNC(=O)CCC(=O)NCCCC[C@H](NC(=O)CNC(=O)[C@H](CCC(=O)O)NC(=O)C(C)(C)NC(=O)C(C)(C)NC(=O)[C@@H](NC(=O)[C@H](CCCCNC(C)=O)NC(=O)[C@H](C)NC(=O)[C@H](CCCNC(=N)N)NC(=O)[C@@H](NC(=O)[C@H](CCCCN)NC(=O)[C@H](CCC(=O)O)NC(=O)[C@H](CCCNC(=N)N)NC(=O)CNC(=O)[C@H](CCC(=O)O)NC(=O)[C@H](CC(C)C)NC(C)=O)C(C)C)[C@@H](C)CC)C(=O)N[C@@H](CO)C(=O)N[C@H](C(=O)N[C@@H](Cc1c[nH]c2ccccc12)C(=O)N[C@@H](CO)C(=O)N[C@@](C)(CCCCN)C(=O)N[C@@H](CCCNC(=N)N)C(=O)N[C@@H](C)C(=O)N[C@@H](CCCCNC(C)=O)C(N)=O)[C@@H](C)O)C(=O)O)C(=O)O)C(=O)O [compound 30] (Ac-LEGREKVRAK(Ac)I[Aib][Aib]EGK([Suc-X3])STWS[αMeK]RAK(Ac)-NH2)
	94%	CCCCCCCCCCCCCCCC(=O)N[C@@H](CCC(=O)N[C@@H](CCC(=O)N[C@@H](CCC(=O)NCCCOCCOCCOCCCNC(=O)CCC(=O)NCCCOCCOCCOCCCNC(=O)CCC(=O)NCCCOCCOCCOCCCNC(=O)CCC(=O)NCCCC[C@H](NC(=O)CNC(=O)[C@H](CCC(=O)O)NC(=O)C(C)(C)NC(=O)C(C)(C)NC(=O)[C@@H](NC(=O)[C@H](CCCCNC(C)=O)NC(=O)[C@H](C)NC(=O)[C@H](CCCNC(=N)N)NC(=O)[C@@H](NC(=O)[C@H](CCCCN)NC(=O)[C@H](CCC(=O)O)NC(=O)[C@H](CCCNC(=N)N)NC(=O)CNC(=O)[C@H](CCC(=O)O)NC(=O)[C@H](CC(C)C)NC(C)=O)C(C)C)[C@@H](C)CC)C(=O)N[C@@H](CO)C(=O)N[C@H](C(=O)N[C@@H](Cc1c[nH]c2ccccc12)C(=O)N[C@@H](CO)C(=O)NC(C)(C)C(=O)N[C@@H](CCCNC(=N)N)C(=O)N[C@@H](CCCNC(=N)N)C(=O)N[C@@H](CCCCNC(C)=O)C(N)=O)[C@@H](C)O)C(=O)O)C(=O)O)C(=O)O [compound 31] (Ac-LEGREKVRAK(Ac)I[Aib][Aib]EGK([Suc-X1])STWS[Aib]RRK(Ac)-NH2)

Source: patent US11725036B2, “Modified lipidated relaxin B chain peptides and their therapeutic use” (Sanofi, priority 2018, dated 2023)
